Laboratory results reported in patent publication US20070072917A1, “Substituted 2-aminotetralin for the treatment of depression” (SRZ Properties, Inc., priority 2003, published 2007).
Entries after “also recorded” stand apart in the source; their conditions may differ.

Columns and labels:
rats [1] = assay: learned helplessness test; type: in vivo; details: several days of administration, low concentrations / depending on the dose, vs vehicle control (HC)
Method: In the “learned helplessness test”, rats are repeatedly subjected to uncontrollable stress. This brings about an impaired learning ability in the animals in a later situation (for example after 48 hours) in which they could escape the stress again. Following the sub-chronic but not acute administration of antidepressants, the learning ability normalises again and the animals learn to escape the (announced) stress (in time) (Sherman, Pharmacology Biochemistry & Behavior 16, 1982, 449).

rats [2] = assay: forced swim test; type: in vivo; details: repeated swim test, subcutaneously applied
Description: The “forced swim test” is an animal model in which depressive episodes are triggered by acute stress. In this test, rats are forced to swim in a limited space. After initial attempts to save themselves, in which the animals realise the hopelessness of the situation, they lapse into immobility. On repetition of the experiment, the animals remain immobile from the start of the experiment. If the animals are pre-treated with antidepressants, the period of immobility in the repeated test is shortened and the animals generally commence search and escape movements immediately after transfer into the water basin (Porsolt, Biomedicine 30, 1979, 139).

bulbectomised rats = assay: bulbectomy study (olfactory bulbs removed on both sides); type: in vivo, Sprague-Dawley rats; details: low doses, 3 minutes on test field
Method: In a further animal model (embodiment 3), it was examined whether the antidepressive effects of rotigotine can be distinguished from a general motor stimulation. In this case, rotigotine was administered to rats whose olfactory bulbs had been removed on both sides. The removal of the olfactory bulb leads to an adaptive hyperactivity in the untreated control group. It is known from literature that chronically administered antidepressants lead to a reduction in the movement activity of the animals in this model, whereas stimulants further increase the motor activity (van Riezen H et al, Br J. Pharmacol. 60(4), 1977, 521; Kelly J P et al, Pharmacol Ther. 74(3), 1997, 299). Therefore, it is possible to discriminate between antidepressive and non-specific stimulatory effects of an active ingredient with this model. […] The bulbectomy study was carried out on Sprague-Dawley rats. A sham-operated group, which was operated on without removal of the olfactory bulbs, served as a control group. 14 days after the operation, the rats were treated with vehicle, a rotigotine depot suspension (every second day) or imipramine. On test days, the rats were placed onto a test field and left to themselves for 3 minutes. The locomotor activities of the animals were thereby measured on the basis of the number of lines crossed.

CCCN(CCc1cccs1)C1CCc2c(O)cccc2C1 (single isomer, unassigned; (-)) [rotigotine, (−)-5,6,7,8-tetrahydro-6-[propyl[2-(2-thienyl)ethyl]amino]-1-naphthol]
learning behaviour (rats [1]): significant antidepressive effect | period of immobility (rats [2]): significant antidepressive effect; also recorded: clear reduction in the period of immobility | period of immobility (rats [2]; listed as Rotigotine): significantly shortened period of immobility | bulbectomy-induced locomotor hyperactivity (number of lines crossed) (bulbectomised rats): almost complete suppression of the bulbectomy-induced locomotor hyperactivity; also recorded: significant antidepressive effect; also recorded: significantly reduce motor hyperactivity
